This is an account of results in US20070196421A1, “Soft tissue implants and drug combination compositions, and use thereof” (priority 2005, published 2007).

Where a name gives a salt, the structure may show the parent alone.

The test system of series [1] is P. aeruginosa PAE/K799 H187. Briefly: MIC by microtitre broth dilution. The series is classed as cell-based. To be noted: Gram−, wt, Mueller Hinton broth, 37° C., 24 h. The method, then: (§1) MIC assays were conducted essentially as described by Amsterdam, D. 1996, “Susceptibility testing of antimicrobials in liquid media”, p. 52-111, in Loman, V., ed. Antibiotics in laboratory medicine, 4th ed. Williams and Wilkins, Baltimore, Md.
(In general: In broth dilution the organism is exposed to a series of concentrations in liquid medium.)

In another series the test system is E. coli UB1005 C498. Briefly: MIC by microtitre broth dilution. It is filed as cell-based. Conditions: Gram−, wt, Mueller Hinton broth, 37° C., 24 h. The protocol:
as §1

In series [2] the test system is K. pneumoniae ATCC13883 C238. Briefly: MIC by microtitre broth dilution. It is filed as cell-based. Conditions: Gram−, wt, Mueller Hinton broth, 37° C., 24 h. The protocol:
as §1

For the next series, the system named is S. pyogenes C721. As to the kind of experiment: MIC by microtitre broth dilution. It is filed as cell-based. Conditions: Gram+, wt, Todd Hewitt broth, 37° C., 24 h. The method, then:
as §1

The test system of the next series is S. epidermidis C621. Briefly: MIC by microtitre broth dilution. The series is classed as cell-based. To be noted: Gram+, wt, Mueller Hinton broth, 37° C., 24 h. The method, then:
as §1

A further series has as its system S. aureus ATCC25923 C622. Briefly: MIC by microtitre broth dilution. The series is classed as cell-based. Conditions: Gram+, wt, Mueller Hinton broth, 37° C., 24 h. The protocol:
as §1

Series [3] has as its system multiple drug-resistant strains of C. glabrata. As to the kind of experiment: antifungal activity against C. glabrata. The series is classed as cell-based. To be noted: antifungal agent used in combination with the manganese compound.
Series [4] has as its system carrageenan-induced paw edema. As to the kind of experiment: Rat carrageenan-induced paw edema model: paw swelling. It is filed as in vivo. To be noted: local injection in paw at T-1 hr, Tmax = 6 hrs. The protocol:
(§2) A dose-range finding study was performed to determine the anti-inflammatory activity of various ratios of methyl prednisolone acetate and amoxapine in a rat carrageenan-induced paw edema model. […] The molar ratio of methyl prednisolone acetate to amoxapine ranged from 1:1 to 1:300, using total doses of methyl prednisolone acetate of 0.01, 0.03 or 0.1 mg/kg.
(§3) The test agent (a combination of methyl prednisolone acetate and amoxapine), vehicle control, or reference agents (methyl prednisolone acetate, amoxapine, or Depo-Medrol®) were administered in the left hind foot pad of rats. After 60 minutes, paw edema was induced by injection of 100 μl of 1% carrageenan in the same foot pad. The paw volume was measured with a water displacement plethysmometer immediately prior to test agent injection (T−1h), at the time of carrageenan injection (T0h), and at T6h. Animals were euthanized by carbon dioxide inhalation. Paw tissue samples were collected and flash frozen in liquid nitrogen. Samples were assayed for TNF-α by enzyme-linked immunoassay (ELISA).
On the technique in general: Carrageenan injected into the paw causes an acute inflammation.

For the next series, the system named is TNF-α. Briefly: Rat carrageenan-induced paw edema model: TNF-α in paw tissue by ELISA. The series is classed as in vivo. The method, then: as §2, §3
Series [5] has as its system immunosuppressive agents, such as cyclosporine. As to the kind of experiment: potency of immunosuppressive agents (enhancer effect).
The conditions of series [6]: cited from earlier work; for solubility in alcohol / ethanol (in words): alcohol or ethanol.

As for `Sc1ncnc2nc[nH]c12` [6-mercaptopurine], the Minimum inhibitory concentration result (in [1]; in the series on E. coli UB1005 C498; in series [2]; with S. pyogenes C721; in the series on S. epidermidis C621; with S. aureus ATCC25923 C622) was “N” each time.
Regarding `CN(C/C=C/C#CC(C)(C)C)Cc1cccc2ccccc12.Cl` [terbinafine, terbinafine hydrochloride], the “enhancement of antifungal activity by the manganese compound” value (“enhancement of antifungal activity” for short) in [3] was “enhances”.
Take `CCC(C)n1ncn(-c2ccc(N3CCN(c4ccc(OC[C@H]5CO[C@](Cn6cncn6)(c6ccc(Cl)cc6Cl)O5)cc4)CC3)cc2)c1=O` (mixture of isomers) [itraconazole]: the “enhancement of antifungal activity” value in series [3] is given as “enhances”.
For the molecule `Sc1ncc2[nH]cnc2n1` [2-mercaptopurine], the Minimum inhibitory concentration entry (in [1]; in the series on E. coli UB1005 C498; in [2]; in the series on S. pyogenes C721; in the series on S. epidermidis C621; in the series on S. aureus ATCC25923 C622) was “N” in each case.
As for `CN(Cc1cnc2nc(N)nc(N)c2n1)c1ccc(C(=O)N[C@@H](CCC(=O)O)C(=O)O)cc1` [methotrexate], the Minimum inhibitory concentration result in [1] is on record as “N”; in the series with E. coli UB1005 C498 it was “N”; in series [2], 10^−6 Molar; with S. pyogenes C721, 10^−6 Molar; with S. epidermidis C621, “N”; with S. aureus ATCC25923 C622 it was 10^−5 Molar.
Regarding `CC(=O)OCC(=O)[C@@]1(O)CC[C@H]2[C@@H]3C[C@H](C)C4=CC(=O)C=C[C@]4(C)[C@H]3[C@@H](O)C[C@@]21C` [MePredAc, methyl prednisolone acetate], the “Edema ± SEM” value in series [4] (0.01 mg/kg) was determined as 32.6 ± 5.3%; in series [4] (0.03 mg/kg), 26.2 ± 7.0%; in series [4] (0.1 mg/kg) it was 12.2 ± 1.8%. In addition, the “TNF-α ± SEM” value was 35.9 ± 11.3 pg/g in the series on TNF-α (0.01 mg/kg), 19.2 ± 3.1 pg/g with TNF-α (0.03 mg/kg) and 28.0 ± 6.0 pg/g with TNF-α (0.1 mg/kg).
Take `CC[C@H](C)C[C@H](C)CCCCCCCCC(=O)N[C@H]1C[C@@H](O)[C@@H](NCCN)NC(=O)[C@@H]2[C@@H](O)CCN2C(=O)[C@H]([C@H](O)CCN)NC(=O)[C@H]([C@H](O)[C@@H](O)c2ccc(O)cc2)NC(=O)[C@@H]2C[C@@H](O)CN2C(=O)[C@H]([C@@H](C)O)NC1=O` [caspofungin]: in [3], the “enhancement of antifungal activity” value is given as “enhances”.
As for `Nc1ncnc2c1ccn2[C@@H]1O[C@H](CO)[C@@H](O)[C@H]1O` [tubercidin], the Minimum inhibitory concentration entry (in series [1]; in the series on E. coli UB1005 C498; in series [2]; in the series with S. pyogenes C721; with S. epidermidis C621; in the series on S. aureus ATCC25923 C622) was “N” each time.
As for `CN(C)C(=O)C(CCN1CCC(O)(c2ccc(Cl)cc2)CC1)(c1ccccc1)c1ccccc1` [Loperamide], the “effect on the potency of immunosuppressive agents” value (“effect on the potency” below) in series [5] was “increase the potency”.
In the case of `CC[C@@]1(O)C(=O)OCc2c1cc1n(c2=O)Cc2cc3ccccc3nc2-1` [camptothecin, camptothecins], the Minimum inhibitory concentration entry in series [1] was “N”; in the series with E. coli UB1005 C498, “N”; in [2], “N”; in the series with S. pyogenes C721, “N”; in the series on S. epidermidis C621, 10^−4 Molar; with S. aureus ATCC25923 C622 it was “N”.
Take `Nc1ccn([C@@H]2O[C@H](CO)[C@@H](O)[C@@H]2O)c(=O)n1` [Cytarabine, cytarabine]: the Minimum inhibitory concentration entry (in series [1]; with E. coli UB1005 C498; in series [2]; in the series with S. pyogenes C721; in the series on S. epidermidis C621; in the series on S. aureus ATCC25923 C622) was “N” each time.
In the case of `CNCCCC12CCC(c3ccccc31)c1ccccc12` [maprotiline, Maprotiline], the “effect on the potency” value in series [5] is “increases the potency”.
For the molecule `O=C1c2c(O)ccc(O)c2C(=O)c2c(NCCNCCO)ccc(NCCNCCO)c21` [mitoxantrone], the Minimum inhibitory concentration in series [1] is recorded as 10^−5 Molar; in the series with E. coli UB1005 C498 it was 10^−5 Molar; in series [2], 10^−6 Molar; in the series with S. pyogenes C721 it was 10^−6 Molar; in the series with S. epidermidis C621, 10^−5 Molar; in the series on S. aureus ATCC25923 C622 it was 10^−5 Molar.
Consider `O=c1[nH]cc(F)c(=O)[nH]1` [5-fluorouracil, 5-FU], for which the Minimum inhibitory concentration is recorded as 10^−5 Molar in series [1]; 10^−6 Molar in the series with E. coli UB1005 C498; 10^−6 Molar in [2]; 10^−4 Molar in the series with S. pyogenes C721; 10^−7 Molar with S. epidermidis C621; 10^−7 Molar with S. aureus ATCC25923 C622.
Turning to `NC(=O)c1ncn([C@@H]2O[C@H](CO)[C@@H](O)[C@H]2O)n1` [Ribavirin, ribavirin], the “solubility in alcohol / ethanol (in words)” value in series [6] is given as “slightly soluble”.
In the case of `COc1cc([C@@H]2c3cc4c(cc3[C@@H](O[C@@H]3O[C@@H]5CO[C@@H](C)O[C@H]5[C@H](O)[C@H]3O)[C@H]3COC(=O)[C@H]23)OCO4)cc(OC)c1O` [etoposide], the Minimum inhibitory concentration result in series [1] was “N”; in the series with E. coli UB1005 C498, “N”; in series [2], 10^−5 Molar; in the series with S. pyogenes C721, 10^−5 Molar; with S. epidermidis C621, 10^−6 Molar; with S. aureus ATCC25923 C622 it was 10^−5 Molar.
As to `Nc1ccc(/N=N\c2ccccc2)c(N)n1` [phenazopyridine-HCl], the “solubility in water (in words)” value in [6] is reported as “slightly soluble”.
On to `CCN(CC)C(C)CN1c2ccccc2Sc2ccccc21` (stereo not drawn) [Ethopropazine, ethopropazine], for which the “effect on the potency” value in [5] was “increases the potency”.
`NC(=O)NO` [hydroxyurea]: the Minimum inhibitory concentration in series [1] is on record as 10^−4 Molar; in the series on E. coli UB1005 C498, “N”; in series [2], “N”; with S. pyogenes C721, 10^−4 Molar; in the series with S. epidermidis C621, “N”; with S. aureus ATCC25923 C622, “N”.
`COc1cccc2c1C(=O)c1c(O)c3c(c(O)c1C2=O)C[C@@](O)(C(=O)CO)C[C@@H]3O[C@H]1C[C@H](N)[C@H](O)[C@H](C)O1` [doxorubicin]: the Minimum inhibitory concentration in series [1] was 10^−5 Molar; in the series with E. coli UB1005 C498, 10^−4 Molar; in series [2], 10^−6 Molar; in the series with S. pyogenes C721, 10^−7 Molar; in the series on S. epidermidis C621, 10^−6 Molar; with S. aureus ATCC25923 C622, 10^−5 Molar.
Take `OC(Cn1cncn1)(Cn1cncn1)c1ccc(F)cc1F` [fluconazole]: in series [3], the “enhancement of antifungal activity” value was “enhances”.
With `N.N.[Cl][Pt][Cl]` [cisplatin], the Minimum inhibitory concentration in [1] is 10^−4 Molar; in the series on E. coli UB1005 C498, “N”; in [2], “N”; in the series with S. pyogenes C721, “N”; in the series with S. epidermidis C621 it was “N”; in the series on S. aureus ATCC25923 C622, “N”.
For `Nc1ccc(/N=N/c2ccccc2)c(N)n1` [Phenazopyridine base, phenazopyridine], in series [6], the “solubility in alcohol / ethanol (in words)” value is listed as “slightly soluble” and the “solubility in water (in words)” value is listed as “slightly soluble”.
For `Oc1cc(Cl)ccc1Oc1ccc(Cl)cc1Cl` [triclosan, Triclosan], the “effect on the potency” value in series [5] is listed as “increases the potency”.
